According to ChEMBL document CHEMBL1201862, “PubChem BioAssay data set” (2004):
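Step 1: Grow cells in 96-well plates. Step 2: Expose to compound for 48 hours at 5 concentrations. Step 3: Interpolate endpoints linearly; if unreached, use highest concentration. GI50: concentration for 50% inhibition of growth.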 Active and inactive are the calls of the source. No stated cut-off is given here; in the data, active = GI50 up to about 1.1 µM and inactive = higher.

Key:
Assay in all cases: inhibition of tumour cell growth, NCI panel, 48 h
NCI-H226 = test system: NCI-H226
786-0 = test system: 786-0
SK-MEL-28 = test system: SK-MEL-28
NCI-H460 = test system: NCI-H460
Hs-578T = test system: Hs-578T
RPMI-8226 = test system: RPMI-8226
HL-60 = test system: HL-60
RXF 393 = test system: RXF 393
SK-MEL-2 = test system: SK-MEL-2
IGROV-1 = test system: IGROV-1
LOX IMVI = test system: LOX IMVI
OVCAR-8 = test system: OVCAR-8
MDA-N = test system: MDA-N
SW-620 = test system: SW-620
CAKI-1 = test system: CAKI-1
OVCAR-4 = test system: OVCAR-4
ACHN = test system: ACHN
SF-268 = test system: SF-268
HCT-116 = test system: HCT-116
UACC-257 = test system: UACC-257
NCI-H23 = test system: NCI-H23
SF-295 = test system: SF-295
HCC 2998 = test system: HCC 2998
NCI-H522 = test system: NCI-H522
TK-10 = test system: TK-10
U-251 = test system: U-251
COLO 205 = test system: COLO 205
UACC-62 = test system: UACC-62
HOP-92 = test system: HOP-92
M14 = test system: M14
HCT-15 = test system: HCT-15
T47D = test system: T47D
HT-29 = test system: HT-29
K562 = test system: K562
SN12C = test system: SN12C
SR = test system: SR
NCI/ADR-RES = test system: NCI/ADR-RES
MOLT-4 = test system: MOLT-4
HOP-62 = test system: HOP-62
MCF7 = test system: MCF7
CCRF-CEM = test system: CCRF-CEM
OVCAR-5 = test system: OVCAR-5
SF-539 = test system: SF-539
MDA-MB-231 = test system: MDA-MB-231
DU-145 = test system: DU-145
A549 = test system: A549
UO-31 = test system: UO-31
A498 = test system: A498
KM12 = test system: KM12
SK-OV-3 = test system: SK-OV-3
PC-3 = test system: PC-3
SNB-75 = test system: SNB-75
MDA-MB-435 = test system: MDA-MB-435
SNB-19 = test system: SNB-19
SK-MEL-5 = test system: SK-MEL-5
Malme-3M = test system: Malme-3M
EKVX = test system: EKVX
OVCAR-3 = test system: OVCAR-3

CN1CCN(c2ccc3[nH]c(-c4ccc5[nH]c(CCCc6ccc(N(CCCl)CCCl)cc6)nc5c4)nc3c2)CC1
GI50 (NCI-H226): > 100 µM (inactive) | GI50 (786-0): > 100 µM (inactive) | GI50 (SK-MEL-28): > 100 µM (inactive) | GI50 (NCI-H460): > 100 µM (inactive) | GI50 (Hs-578T): 2.09 µM (inactive) | GI50 (RPMI-8226): > 100 µM (inactive) | GI50 (HL-60): 62.8 µM (inactive) | GI50 (RXF 393): > 100 µM (inactive) | GI50 (SK-MEL-2): > 100 µM (inactive) | GI50 (IGROV-1): 13.5 µM (inactive) | GI50 (LOX IMVI): 60.7 µM (inactive) | GI50 (OVCAR-8): > 100 µM (inactive) | GI50 (MDA-N): > 100 µM (inactive) | GI50 (SW-620): > 100 µM (inactive) | GI50 (CAKI-1): > 100 µM (inactive) | GI50 (OVCAR-4): > 100 µM (inactive) | GI50 (ACHN): > 100 µM (inactive) | GI50 (SF-268): > 100 µM (inactive) | GI50 (HCT-116): > 100 µM (inactive) | GI50 (UACC-257): > 100 µM (inactive) | GI50 (NCI-H23): > 100 µM (inactive) | GI50 (SF-295): > 100 µM (inactive) | GI50 (HCC 2998): > 100 µM (inactive) | GI50 (NCI-H522): > 100 µM (inactive) | GI50 (TK-10): > 100 µM (inactive) | GI50 (U-251): > 100 µM (inactive) | GI50 (COLO 205): > 100 µM (inactive) | GI50 (UACC-62): 84.5 µM (inactive) | GI50 (HOP-92): > 100 µM (inactive) | GI50 (M14): > 100 µM (inactive) | GI50 (HCT-15): > 100 µM | GI50 (T47D): > 100 µM (inactive) | GI50 (HT-29): 41.7 µM (inactive) | GI50 (K562): > 100 µM (inactive) | GI50 (SN12C): > 100 µM (inactive) | GI50 (SR): 96.2 µM (inactive) | GI50 (NCI/ADR-RES): > 100 µM (inactive) | GI50 (MOLT-4): 77.8 µM (inactive) | GI50 (HOP-62): > 100 µM (inactive) | GI50 (MCF7): 64.3 µM (inactive) | GI50 (CCRF-CEM): 75.3 µM (inactive) | GI50 (OVCAR-5): > 100 µM (inactive) | GI50 (SF-539): > 100 µM (inactive) | GI50 (MDA-MB-231): > 100 µM (inactive) | GI50 (DU-145): > 100 µM (inactive) | GI50 (A549): > 100 µM (inactive) | GI50 (UO-31): > 100 µM (inactive) | GI50 (A498): > 100 µM (inactive) | GI50 (KM12): > 100 µM (inactive) | GI50 (SK-OV-3): > 100 µM (inactive) | GI50 (PC-3): > 100 µM (inactive) | GI50 (SNB-75): > 100 µM (inactive) | GI50 (MDA-MB-435): > 100 µM (inactive) | GI50 (SNB-19): > 100 µM (inactive) | GI50 (SK-MEL-5): > 100 µM (inactive) | GI50 (Malme-3M): > 100 µM (inactive)

CCSCCCCC(c1ccc(O)cc1)C(C)(CC)c1ccc(O)cc1 (stereo unspecified)
GI50 (NCI-H226): 17.9 µM (inactive) | GI50 (786-0): 24.4 µM (inactive) | GI50 (SK-MEL-28): 18 µM (inactive) | GI50 (NCI-H460): 30.1 µM (inactive) | GI50 (Hs-578T): 23.6 µM (inactive) | GI50 (RPMI-8226): 19.5 µM (inactive) | GI50 (HL-60): > 100 µM (inactive) | GI50 (RXF 393): 6.92 µM (inactive) | GI50 (SK-MEL-2): 16 µM (inactive) | GI50 (IGROV-1): 16.9 µM (inactive) | GI50 (LOX IMVI): 17.6 µM (inactive) | GI50 (OVCAR-8): 19.3 µM (inactive) | GI50 (MDA-N): 23.2 µM (inactive) | GI50 (SW-620): 21.4 µM (inactive) | GI50 (CAKI-1): 35 µM (inactive) | GI50 (OVCAR-4): 21.7 µM (inactive) | GI50 (ACHN): 18.6 µM (inactive) | GI50 (SF-268): 20.3 µM (inactive) | GI50 (EKVX): 29.6 µM (inactive) | GI50 (HCT-116): 17.9 µM (inactive) | GI50 (UACC-257): 22.2 µM (inactive) | GI50 (NCI-H23): 19.6 µM (inactive) | GI50 (SF-295): 31.3 µM (inactive) | GI50 (HCC 2998): 15.3 µM (inactive) | GI50 (NCI-H522): 17.7 µM (inactive) | GI50 (TK-10): 17.4 µM (inactive) | GI50 (U-251): 16.4 µM (inactive) | GI50 (COLO 205): 20.4 µM (inactive) | GI50 (UACC-62): 27.2 µM (inactive) | GI50 (HOP-92): 19.3 µM (inactive) | GI50 (M14): 31 µM (inactive) | GI50 (HCT-15): 18.4 µM | GI50 (T47D): 14.4 µM (inactive) | GI50 (K562): 42.1 µM (inactive) | GI50 (SN12C): 33.1 µM (inactive) | GI50 (SR): 38.7 µM (inactive) | GI50 (NCI/ADR-RES): 20.3 µM (inactive) | GI50 (MOLT-4): 32.1 µM (inactive) | GI50 (HOP-62): 53.7 µM (inactive) | GI50 (MCF7): 27.4 µM (inactive) | GI50 (CCRF-CEM): 18.6 µM (inactive) | GI50 (OVCAR-5): 24.4 µM (inactive) | GI50 (SF-539): 20 µM (inactive) | GI50 (MDA-MB-231): 21.7 µM (inactive) | GI50 (DU-145): > 100 µM (inactive) | GI50 (A549): 25.4 µM (inactive) | GI50 (UO-31): 19.6 µM (inactive) | GI50 (A498): > 100 µM (inactive) | GI50 (KM12): 21.6 µM (inactive) | GI50 (SK-OV-3): 21.1 µM (inactive) | GI50 (PC-3): 20.3 µM (inactive) | GI50 (SNB-75): > 100 µM (inactive) | GI50 (MDA-MB-435): 18.2 µM (inactive) | GI50 (OVCAR-3): 18.2 µM (inactive) | GI50 (SNB-19): 24.5 µM (inactive) | GI50 (SK-MEL-5): 18.2 µM (inactive) | GI50 (Malme-3M): 20.3 µM (inactive)

C[C@@H]([C@H]1CC[C@@]2(C)[C@@H]3CC[C@@H]4C(=CC3=CC[C@]12C)CC[C@H](N(C)C)C4(C)C)N(C)C [BUXAMINE A]
GI50 (NCI-H226): > 100 µM (inactive) | GI50 (786-0): > 100 µM (inactive) | GI50 (SK-MEL-28): > 100 µM (inactive) | GI50 (NCI-H460): > 100 µM (inactive) | GI50 (Hs-578T): > 100 µM (inactive) | GI50 (RPMI-8226): > 100 µM (inactive) | GI50 (HL-60): > 100 µM (inactive) | GI50 (RXF 393): > 100 µM (inactive) | GI50 (IGROV-1): > 100 µM (inactive) | GI50 (LOX IMVI): > 100 µM (inactive) | GI50 (OVCAR-8): > 100 µM (inactive) | GI50 (MDA-N): > 100 µM (inactive) | GI50 (SW-620): > 100 µM (inactive) | GI50 (CAKI-1): > 100 µM (inactive) | GI50 (OVCAR-4): > 100 µM (inactive) | GI50 (ACHN): > 100 µM (inactive) | GI50 (SF-268): > 100 µM (inactive) | GI50 (EKVX): > 100 µM (inactive) | GI50 (HCT-116): > 100 µM (inactive) | GI50 (UACC-257): > 100 µM (inactive) | GI50 (NCI-H23): > 100 µM (inactive) | GI50 (SF-295): > 100 µM (inactive) | GI50 (HCC 2998): > 100 µM (inactive) | GI50 (NCI-H522): > 100 µM (inactive) | GI50 (TK-10): > 100 µM (inactive) | GI50 (U-251): > 100 µM (inactive) | GI50 (COLO 205): > 100 µM (inactive) | GI50 (UACC-62): > 100 µM (inactive) | GI50 (HOP-92): > 100 µM (inactive) | GI50 (M14): > 100 µM (inactive) | GI50 (HCT-15): > 100 µM | GI50 (T47D): > 100 µM (inactive) | GI50 (HT-29): > 100 µM (inactive) | GI50 (K562): > 100 µM (inactive) | GI50 (SN12C): > 100 µM (inactive) | GI50 (SR): > 100 µM (inactive) | GI50 (NCI/ADR-RES): > 100 µM (inactive) | GI50 (MOLT-4): > 100 µM (inactive) | GI50 (HOP-62): > 100 µM (inactive) | GI50 (MCF7): > 100 µM (inactive) | GI50 (CCRF-CEM): > 100 µM (inactive) | GI50 (OVCAR-5): > 100 µM (inactive) | GI50 (SF-539): > 100 µM (inactive) | GI50 (MDA-MB-231): > 100 µM (inactive) | GI50 (DU-145): > 100 µM (inactive) | GI50 (KM12): > 100 µM (inactive) | GI50 (SK-OV-3): > 100 µM (inactive) | GI50 (PC-3): > 100 µM (inactive) | GI50 (MDA-MB-435): > 100 µM (inactive) | GI50 (OVCAR-3): > 100 µM (inactive) | GI50 (SNB-19): > 100 µM (inactive) | GI50 (SK-MEL-5): > 100 µM (inactive) | GI50 (Malme-3M): > 100 µM (inactive)
